The values that follow come from US7271187B2, “Compositions and methods for promoting tissue regeneration” (priority 2000, dated 2007).

The test system of experiment [1] is mixed embryonic day 18 (E18) rat neural cultures. Description: Embryonic day 18 rat cortical culture, glutamate-killed neurons, immunostaining for neuronal markers. It is filed as cell-based. The text has this:
The method of the invention is exemplified by a first embodiment wherein administration of a single in vitro dose of N-[4-[(4-fluorophenyl)sulfonyl]phenyl]-acetamide, a compound according to Formula (II), to a population of mixed embryonic day 18 (“E18”) rat neural cultures without living neurons results in a protein expression pattern within the culture that is indicative of development of neuronal cells from progenitor cells. The embryonic neural cultures are first subjected to glutamate excitotoxic exposure sufficient to result in neuronal cell death prior to administration of the compound. Cultures obtained from E18 rat embryos are allowed to mature in vitro for 10 days at which time they are treated with […] glutamate to kill the neurons. Eight days later, cultures are treated with a range of doses of the compound N-[4-[(4-fluorophenyl)sulfonyl]phenyl]acetamide from 0.01 μg/ml to 100 μg/ml. In comparing control cultures and drug treated cultures, an antigenic marker for neuronal progenitor cells, e-NCAM (as detected by immunohistochemical methods), is elevated one week after treatment of the culture with N-[4-[(4-fluorophenyl)sulfonyl]phenyl]-acetamide. […] In contrast, few cells in untreated cultures are observed expressing MAP-II immunoreactivity at 3 weeks post-treatment. […] In control cultures, few cells are observed expressing intense MAP-II and beta-tubulin immunoreactivity. […] This expression pattern represents the normal sequence of events as neuronal cells develop from progenitor cells.
CNS tissue was harvested from embryonic day 18 (E-18) rat pups (Taconic Labs) using sterile technique and was stored in ice cold Hank's Balanced Salt Solution (HBSS-Gibco). Brains were removed from the cranium of 10 embryos, and the meninges removed to expose the underlying cortex. Cortex was isolated from the rest of the brain and stored in ice cold HBSS. After all material was collected, the tissue was minced and trypsinized using 0.1% trypsin (Sigma) for 30 minutes at 37° C. Trypsin action was inhibited by adding 0.5 mg/ml soybean trypsin inhibitor (Gibco). Tissue was rinsed with HBSS and triturated using a flame narrowed Pasteur pipette coated with fetal bovine serum (FBS—Media Tech).
Dissociated cells were counted and plated into 24 well cluster plates in DMEM (MediaTech) plus 10% FBS (Media Tech) at a density of 5×10^5 cells per well. Twenty-four well cluster plates were coated with poly-D-lysine prior to adding cells. Cultures were maintained for 10 days in vitro using a 3-4 day feeding schedule where half the media was removed and replaced with fresh media.
On in vitro day (IVD) 10, glutamate (Gibco) (110 μl of 20 mM added to wells that contained 1 ml of media) was add to all wells except control wells to a final concentration 2 mM. Control wells were fed an equal amount of media minus the L-glutamate. Cultures were maintained for an additional 9 days using a 3-4 feeding schedule. On IVD-18, media was removed and replaced with Neurobasal (Gibco)+B27 supplements (Gibco) and L-glutamine (Media Tech). The next day, IVD-19, N-[4-[(4-fluorophenyl)sulfonyl]phenyl]acetamide dissolved in 2-hydroxypropyl-β-cyclodextrin (Sigma) was added to cultures such that the final concentrations of the compound were either 100 μg/ml, 10 μg/ml, 1 μg/ml and 0.1 μg/ml or 10 μg/ml, 1 μg/ml 0.1 μg/ml and 0.01 μg/ml. Two sets of control wells were included in each experiment. One set of glutamate treated wells received an equal dose of 2-hydroxypropyl-β-cyclodextrin but without N-[4-[(4-fluorophenyl)sulfonyl]phenyl]acetamide. […] After it became apparent that the optimal dose was approximately 0.1 μg/ml to 1 μg/ml N-[4-[(4-fluorophenyl)sulfonyl]phenyl]acetamide, the concentration of drug added to the control wells was reduced to 1 μg/ml.
Cultures were maintained for up to an additional 10 weeks. […]

For another experiment, the system named is PND5 rat cultures. The experiment is described as follows: Post natal day 5 rat cortical/subventricular zone cultures, immunostaining. It is filed as cell-based. The procedure: The method of the invention is also exemplified by a second embodiment in which N-[4-[(4-fluorophenyl)sulfonyl]phenyl]acetamide is administered in vitro to tissue from postnatal mammals. Treatment with N-[4-[(4-fluorophenyl)sulfonyl]phenyl]acetamide results in neuroregeneration as evidenced by immunostaining for beta-tubulin, eNCAM and MAP II. Neural tissue harvested from Post Natal day 5 (PND5) animals can be prepared in culture by the method above used with E18 cells, except that the cultures are not treated with glutamate because the neurons are unable to survive the culture preparation step. Using an assay system, cells can be treated with N-[4-[(4-fluorophenyl)sulfonyl]phenyl]acetamide 24 hours after the cultures are established.
In one study, PND-5 day cultures generated from tissue isolated specifically from the subventricular zone were compared to cultures generated from the whole cortex. Twenty four hours after dissection, cultures were treated with the compound. Four weeks after treatment, cultures were immunostained with antibodies against β-tubulin or antibodies against MAP II.
Post natal day 5 rat pups (Taconic Labs) were decapitated, skin covering the cranium was removed so the bone over top the brain could be opened. Using a sterile spatula, the brain was extracted from the opened cranium and transferred to a 60 mm petri dish (Corning) containing sterile, ice cold Hank's balanced salt solution (HBSS). The meningial tissue was removed from the cortex, the cortex was gently teased away from the subcortical structures and transferred to a new 60 mm petri dish containing ice cold HBSS. Using a pair of fine, curved forceps, the desired cortical material was pinched from the remainder of the cortex and transferred to a new 60 mm petri dish containing ice cold HBSS. For most experiments, only tissue in the immediate vicinity of the subventricular zone was collected while in a few experiments, almost the entire cortex was pinched leaving only the outer most layer of cortical tissue behind. After harvesting all cortical tissue, the tissue was minced using two #11 scalpel blades that were repeatedly drawn across each other. After the majority of the tissue was minced into approximately 1 mm cubes, the HBSS was removed and replaced with 4 ml of trypsin/EDTA (Gibco—0.5%/5.3 mM) plus 1 ml of DNase (Sigma—0.01%). The petri dish containing tissue and enzymes were placed in a 37° C. incubator for 30 minutes and agitated every 5 minutes. After 30 minutes, the tissue was removed from the incubator and 1 ml 0.1 mg/ml of soybean trypsin inhibitor was added. Tissue was transferred to a 15 ml conical tube, spun at 500×g for 10 minutes in a refrigerated centrifuge. Supernatant was removed, the pellet was resuspended in 10 ml of DMEM+10% FBS, passed first through a 100 μm filter (Falcon) and finally through a 40 μm filter (Falcon). A cell count was performed to determine the final volume of media needed to yield a cell density of 1×10^6 viable cells per ml. Five hundred microliters of supernatant containing 5×10^5 viable cells was added to each well of 24 well cluster plates previously coated with 5 μg/ml poly lysine.
To remove the cellular debris, all plates were washed 24 hours after plating. Each plate was gently rocked several times, the media was removed and replaced with 1 ml of 37° C. DMEM. […]

[2] abbreviates: 4 weeks post treatment, vs control cultures.
Where [3] appears, read: study of subventricular zone vs whole cortex cultures, four weeks after treatment.

As to `CC(=O)Nc1ccc(S(=O)(=O)c2ccc(F)cc2)cc1` [N-[4-[(4-fluorophenyl)sulfonyl]phenyl]acetamide], the MAP-II expression result in experiment [1] (3 weeks post treatment, vs untreated cultures) is “Low levels of MAP-II expression are also detected at 3 weeks post treatment in a large number of cells”. Moreover, in experiment [1] (setting [2]), the MAP-II immunoreactivity entry is “a large number of cells treated with the compound can be observed expressing intense MAP-II and beta-tubulin immunoreactivity”; the beta-tubulin immunoreactivity entry was “a large number of cells treated with the compound can be observed expressing intense MAP-II and beta-tubulin immunoreactivity”. For the same molecule, in experiment [1] (6 weeks post treatment, vs untreated cultures), the “phosphorylated neurofilament protein (NF-PO4) immunoreactivity” value was “can be observed in numerous neurites”. In addition, the “e-NCAM expression (immunohistochemical)” value in experiment [1] (one week after treatment, drug treated vs control cultures, 0.01 μg/ml to 100 μg/ml) is recorded as “elevated”. Further, the “expression of Low affinity Neuron Growth Factor Receptor” value in experiment [1] (ten weeks post treatment) is “show expression of the Low affinity Neuron Growth Factor Receptor”. Moreover, in experiment [1] (three weeks post treatment, vs untreated control cultures), the beta-tubulin expression entry is “elevated levels of beta-tubulin expression are detected in large numbers of cells”. Moreover, the “number of β-tubulin positive cells” value in the experiment with PND5 rat cultures (four weeks post treatment, vs untreated control wells) is on record as “increased numbers of β-tubulin positive cells”. In the experiment on PND5 rat cultures (one week post treatment, vs untreated control samples), the eNCAM expression result is listed as “Enhanced expression of eNCAM”. Also, the MAP-II expression result with PND5 rat cultures (six weeks post treatment, vs untreated control samples) is listed as “MAP-II expression is enhanced”. In the experiment on PND5 rat cultures (setting [3]), the “number of MAP II positive cells” value is given as “Greater numbers” and the “number of β-tubulin positive cells” value is reported as “Greater numbers”.
